From ChEMBL document CHEMBL1147761, “Novel 1,3-dipropyl-8-(1-heteroarylmethyl-1H-pyrazol-4-yl)-xanthine derivatives as high affinity and selective A2B adenosine receptor antagonists” (Bioorg Med Chem Lett, 2006)

Experiments:
Adenosine receptor A2a = Adenosine receptor A2a (Homo sapiens, UniProt P29274); assay: Displacement of [3H]ZM-241385 from Adenosine A2A receptor expressed in HEK cells; assay type: cell-based, HEK293
Adenosine receptor A1 = biological target: T1, Adenosine receptor A1 (Homo sapiens, UniProt P30542); assay: Displacement of [3H]CPX from Adenosine A1 receptor expressed in CHO cells; assay type: cell-based
T1 sequence (P30542 whole entry): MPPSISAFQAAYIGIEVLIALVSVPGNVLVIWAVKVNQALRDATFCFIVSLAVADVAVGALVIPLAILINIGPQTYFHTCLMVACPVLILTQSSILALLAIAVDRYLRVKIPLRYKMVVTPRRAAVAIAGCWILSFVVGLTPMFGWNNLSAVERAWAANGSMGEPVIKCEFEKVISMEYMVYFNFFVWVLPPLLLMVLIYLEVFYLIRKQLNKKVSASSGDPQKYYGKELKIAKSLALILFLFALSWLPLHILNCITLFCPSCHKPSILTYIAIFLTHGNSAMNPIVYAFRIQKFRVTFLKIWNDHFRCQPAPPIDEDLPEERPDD

[1] = biological target: Adenosine A2 receptor (Homo sapiens) (UniProt P29275+P29274); assay: Selectivity of adenosine A2A receptor over adenosine A2B receptor; assay type: protein assay
Sequence of Adenosine A2 receptor (Homo sapiens) (P29274 whole entry, looked up, one chain of several): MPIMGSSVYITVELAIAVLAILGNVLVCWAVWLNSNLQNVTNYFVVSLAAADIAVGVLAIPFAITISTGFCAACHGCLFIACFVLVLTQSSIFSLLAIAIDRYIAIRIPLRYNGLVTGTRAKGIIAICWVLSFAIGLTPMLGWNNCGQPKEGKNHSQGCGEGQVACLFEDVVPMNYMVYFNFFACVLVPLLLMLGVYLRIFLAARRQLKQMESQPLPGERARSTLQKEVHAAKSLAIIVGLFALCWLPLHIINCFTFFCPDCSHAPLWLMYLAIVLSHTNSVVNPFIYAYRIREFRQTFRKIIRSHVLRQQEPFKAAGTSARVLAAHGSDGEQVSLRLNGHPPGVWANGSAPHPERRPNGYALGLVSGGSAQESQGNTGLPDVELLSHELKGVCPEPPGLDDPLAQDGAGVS

Adenosine receptor A3 = biological target: T2, Adenosine receptor A3 (Homo sapiens, UniProt P0DMS8); assay: Displacement of [125I]AB-MECA from Adenosine A3 receptor expressed in CHO cells; assay type: cell-based
T2 sequence (P0DMS8 whole entry): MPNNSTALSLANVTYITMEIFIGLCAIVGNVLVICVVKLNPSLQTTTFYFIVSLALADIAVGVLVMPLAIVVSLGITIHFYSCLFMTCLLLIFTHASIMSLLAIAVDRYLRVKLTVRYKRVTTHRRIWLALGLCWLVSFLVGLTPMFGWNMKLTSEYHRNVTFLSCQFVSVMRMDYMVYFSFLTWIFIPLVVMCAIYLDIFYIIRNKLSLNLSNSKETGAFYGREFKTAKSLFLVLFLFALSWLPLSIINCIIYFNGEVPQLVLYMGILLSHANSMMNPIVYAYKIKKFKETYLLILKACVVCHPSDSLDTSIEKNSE

Adenosine receptor A2b = biological target: T3, Adenosine receptor A2b (Homo sapiens, UniProt P29275); assay: Displacement of [3H]ZM-241385 from Adenosine A2B receptor expressed in HEK cells; assay type: cell-based, HEK293
T3 sequence (P29275 whole entry): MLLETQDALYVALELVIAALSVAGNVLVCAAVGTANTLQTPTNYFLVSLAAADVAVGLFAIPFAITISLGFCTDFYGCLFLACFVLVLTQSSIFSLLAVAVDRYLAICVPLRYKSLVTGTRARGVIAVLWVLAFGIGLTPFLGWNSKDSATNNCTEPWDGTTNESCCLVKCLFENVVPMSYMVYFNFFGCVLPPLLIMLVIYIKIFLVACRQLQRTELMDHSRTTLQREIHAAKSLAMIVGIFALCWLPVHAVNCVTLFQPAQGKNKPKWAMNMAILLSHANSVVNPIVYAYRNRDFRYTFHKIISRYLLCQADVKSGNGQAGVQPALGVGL

[2] = biological target: Adenosine receptors; A2b & A3 (Homo sapiens) (UniProt P29275+P0DMS8); assay: Selectivity of adenosine A3 receptor over adenosine A2B receptor; assay type: protein assay
[3] = biological target: Adenosine receptors; A1 & A2b (Homo sapiens) (UniProt P30542+P29275); assay: Selectivity of adenosine A1 receptor over adenosine A2B receptor; assay type: protein assay

Sequence of Adenosine receptor A2a (P29274 whole entry): as the sequence (P29274 whole entry, looked up, one chain of several) above

Ki (Adenosine receptor A2a) | Ki (Adenosine receptor A1) | Ratio Ki [1] | Ki (Adenosine receptor A3) | Ki (Adenosine receptor A2b) | Ratio Ki [2] | Ratio Ki [3] | Structure (SMILES)
> 5 µM | 4.6 µM | > 30 | 4.4 µM | 0.163 µM | 27 | 28 | CCCn1c(=O)c2nc(-c3cnn(Cc4cc(-c5cccc(Cl)c5)on4)c3)[nH]c2n(CCC)c1=O
 |  | > 60 |  |  | 7 | 26 | CCCn1c(=O)c2nc(-c3cnn(Cc4nc(-c5cccc(OC)c5)no4)c3)[nH]c2n(CCC)c1=O
 |  | > 156 |  |  | 15 | 20 | CCCn1c(=O)c2nc(-c3cnn(Cc4nc(-c5cccc(Cl)c5)no4)c3)[nH]c2n(CCC)c1=O
 |  | > 90 |  |  | 23 | 60 | CCCn1c(=O)c2nc(-c3cnn(Cc4nc(-c5ccc(C(F)(F)F)cc5)no4)c3)[nH]c2n(CCC)c1=O
 |  | > 79 |  |  | 48 | 31 | CCCn1c(=O)c2nc(-c3cnn(Cc4cc(-c5ccc(OC)cc5)on4)c3)[nH]c2n(CCC)c1=O
1.6 µM | 1.9 µM |  | 0.41 µM | 0.082 µM |  |  | CCCn1c(=O)c2[nH]c(-c3cnn(Cc4nc(-c5ccccc5OC)no4)c3)nc2n(CCC)c1=O
 |  | > 39 |  |  | 8 | 11 | CCCn1c(=O)c2nc(-c3cnn(Cc4nc(-c5cccc(C)c5)no4)c3)[nH]c2n(CCC)c1=O
> 5 µM | 0.53 µM | > 67 | 0.34 µM | 0.074 µM | 4 | 7 | CCCn1c(=O)c2nc(-c3cnn(Cc4nc(-c5ccccc5C(F)(F)F)no4)c3)[nH]c2n(CCC)c1=O
 |  | > 277 |  |  | 53 | 70 | CCCn1c(=O)c2nc(-c3cnn(Cc4nc(-c5ccc(C#N)cc5)no4)c3)[nH]c2n(CCC)c1=O
> 5 µM | 2.2 µM |  | 0.6 µM | 0.082 µM |  |  | CCCn1c(=O)c2[nH]c(-c3cnn(Cc4nc(-c5cccc(OC)c5)no4)c3)nc2n(CCC)c1=O
> 5 µM | 1.4 µM |  | 0.97 µM | 0.128 µM |  |  | CCCn1c(=O)c2[nH]c(-c3cnn(Cc4nc(-c5cccc(C)c5)no4)c3)nc2n(CCC)c1=O
 |  | 55 |  |  | 160 | 48 | CCCn1c(=O)c2nc(-c3cnn(Cc4nc(-c5ccc(C)cc5)no4)c3)[nH]c2n(CCC)c1=O
> 5 µM | 0.81 µM |  | 2 µM | 0.136 µM |  |  | CCCn1c(=O)c2[nH]c(-c3cnn(Cc4noc(-c5cccc(OC)c5)n4)c3)nc2n(CCC)c1=O
> 5 µM | 0.652 µM |  | 0.49 µM | 0.032 µM |  |  | CCCn1c(=O)c2[nH]c(-c3cnn(Cc4nc(-c5cccc(Cl)c5)no4)c3)nc2n(CCC)c1=O
 |  | 19 |  |  | 5 | 23 | CCCn1c(=O)c2nc(-c3cnn(Cc4nc(-c5ccccc5OC)no4)c3)[nH]c2n(CCC)c1=O
 |  | > 37 |  |  | 15 | 6 | CCCn1c(=O)c2nc(-c3cnn(Cc4noc(-c5cccc(OC)c5)n4)c3)[nH]c2n(CCC)c1=O
3 µM | 2.6 µM |  | 8.7 µM | 0.054 µM |  |  | CCCn1c(=O)c2[nH]c(-c3cnn(Cc4nc(-c5ccc(C)cc5)no4)c3)nc2n(CCC)c1=O

Second part, the compound before the results:

Structure (SMILES) | Ki (Adenosine receptor A2a) | Ki (Adenosine receptor A1) | Ratio Ki [1] | Ki (Adenosine receptor A3) | Ki (Adenosine receptor A2b) | Ratio Ki [2] | Ratio Ki [3]
CCCn1c(=O)c2nc(-c3cnn(CC(=O)Nc4ccccc4Cl)c3)[nH]c2n(CCC)c1=O |  |  | 68 |  |  | 54 | 5
CCCn1c(=O)c2[nH]c(-c3cnn(Cc4noc(-c5ccccc5Cl)n4)c3)nc2n(CCC)c1=O | 2.5 µM | 0.63 µM |  | 0.33 µM | 0.038 µM |  | 
CCCn1c(=O)c2[nH]c(-c3cnn(CC(=O)Nc4ccccc4Cl)c3)nc2n(CCC)c1=O | 1.5 µM | 0.102 µM |  | 1.2 µM | 0.022 µM |  | 
CCCn1c(=O)c2nc(-c3cnn(Cc4noc(-c5ccccc5C(F)(F)F)n4)c3)[nH]c2n(CCC)c1=O |  |  | > 50 |  |  | 6 | 19
CCCn1c(=O)c2nc(-c3cnn(Cc4noc(-c5ccc(C#N)cc5)n4)c3)[nH]c2n(CCC)c1=O |  |  | > 357 |  |  | 45 | 40
CCCn1c(=O)c2nc(-c3cnn(Cc4cc(-c5ccccc5Cl)on4)c3)[nH]c2n(CCC)c1=O |  |  | 24 |  |  | 20 | > 54
CCCn1c(=O)c2[nH]c(-c3cnn(Cc4noc(-c5ccc(C#N)cc5)n4)c3)nc2n(CCC)c1=O | > 5 µM | 0.57 µM |  | 0.64 µM | 0.014 µM |  | 
CCCn1c(=O)c2nc(-c3cnn(Cc4cc(-c5ccccc5OC)on4)c3)[nH]c2n(CCC)c1=O |  |  | > 25 |  |  | 24 | 16
CCCn1c(=O)c2[nH]c(-c3cnn(Cc4nc(-c5ccc(C(F)(F)F)cc5)no4)c3)nc2n(CCC)c1=O | > 5 µM | 3.3 µM |  | 1.3 µM | 0.055 µM |  | 
CCCn1c(=O)c2[nH]c(-c3cnn(Cc4cc(-c5ccccc5Cl)on4)c3)nc2n(CCC)c1=O | 2.7 µM | > 6 µM |  | 2.3 µM | 0.111 µM |  | 
CCCn1c(=O)c2nc(-c3cnn(Cc4noc(-c5ccccc5Cl)n4)c3)[nH]c2n(CCC)c1=O |  |  | 65 |  |  | 9 | 16
CCCn1c(=O)c2nc(-c3cnn(Cc4noc(-c5cccc(C(F)(F)F)c5)n4)c3)[nH]c2n(CCC)c1=O |  |  | > 78 |  |  | 27 | > 93
CCCn1c(=O)c2[nH]c(-c3cnn(Cc4noc(-c5ccccc5C(F)(F)F)n4)c3)nc2n(CCC)c1=O | > 5 µM | 1.9 µM |  | 0.62 µM | 0.1 µM |  | 
CCCn1c(=O)c2[nH]c(-c3cnn(Cc4cc(-c5ccc(OC)cc5)on4)c3)nc2n(CCC)c1=O | > 5 µM | 2 µM |  | 3 µM | 0.063 µM |  | 
CCCn1c(=O)c2[nH]c(-c3cnn(Cc4cc(-c5ccc(Cl)cc5)on4)c3)nc2n(CCC)c1=O | 1.2 µM | 0.54 µM |  | 3.3 µM | 0.082 µM |  | 
CCCn1c(=O)c2nc(-c3cnn(Cc4cc(-c5ccc(C(F)(F)F)cc5)on4)c3)[nH]c2n(CCC)c1=O |  |  | 35 |  |  | 25 | 48
CCCn1c(=O)c2[nH]c(-c3cnn(Cc4cc(-c5ccccc5OC)on4)c3)nc2n(CCC)c1=O | > 5 µM | 3.3 µM |  | 4.9 µM | 0.195 µM |  | 
CCCn1c(=O)c2nc(-c3cnn(Cc4cc(-c5ccc(Cl)cc5)on4)c3)[nH]c2n(CCC)c1=O |  |  | 14 |  |  | 40 | 6
CCCn1c(=O)c2[nH]c(-c3cnn(Cc4cc(-c5ccc(C(F)(F)F)cc5)on4)c3)nc2n(CCC)c1=O | 1.7 µM | 2.3 µM |  | 1.2 µM | 0.048 µM |  | 
CCCn1c(=O)c2[nH]c(-c3cnn(Cc4noc(-c5cccc(C(F)(F)F)c5)n4)c3)nc2n(CCC)c1=O | > 5 µM | > 6 µM |  | 1.8 µM | 0.064 µM |  | 
CCCn1c(=O)c2[nH]c(-c3cnn(Cc4nc(-c5ccc(C#N)cc5)no4)c3)nc2n(CCC)c1=O | > 5 µM | 1.3 µM |  | 0.95 µM | 0.018 µM |  | 
